Series [1] deals with Pseudomonas aeruginosa. Put plainly: Kirby-Bauer disc diffusion antimicrobial susceptibility testing. Type of series: cell-based. On the technique in general: A growth-free zone around the sample is the usual read-out of agar diffusion tests.
For series [2], the system named is Pseudomonas aeruginosa. Put plainly: Bacterial kill in stripped skin wound of a rodent. Type of series: in vivo. The settings on record: for bactericidal effect on stripped skin wound: topical at various calculated doses, in 48 to 96 hours; for kill of Pseudomonas aeruginosa: topical on stripped skin wound, in 48 hours, both reagents and dose. The text has this:
Experimental Groups: There were 4 experimental groups. […] Treatment varied by reagent and dosage.

Series [3] relates to P. aeruginosa (ACTA 27853). Put plainly: Mouse tape-stripped skin wound infection model (Example 3). Type of series: in vivo. Particulars: for bacterial burden: 48 and 96 hours. On the procedure:
Mice had back skin tape stripped and the stripped site (wound) was infected with P. aeruginosa (ACTA 27853). The test reagents were applied topically in an aqueous solution on the stripped site at two hours and daily on day 1, 2 and 3.
C3G, an anthocyanin and its main metabolite PCA were formulated and tested at several doses. The aqueous carrier was water. The C3G formulation included 100 mM and 200 mM dose concentrations and the PCA formulation included 25 and 50 mM dose concentrations.

The test system of the next series is P. acnes. The series can be described thus: Kirby-Bauer disc diffusion antimicrobial susceptibility testing. Format: cell-based.
A further series relates to IGF-1, TGF-β, EGF. Put plainly: Local growth factor levels in normal (unstripped, uninfected) mouse skin (Example 4). Format: in vivo, mice. Particulars: 100 μM topical, normal rodent skin. On the procedure:
Mice were shaved but unstrapped and uninfected (normal rodent skin). The test reagents were applied topically in an aqueous solution on the unstripped site at two hours and daily on day 1, 2 and 3. Testing reagents consisted of […] and PCA formulated at one dose, 100 μM in an aqueous solution.

For series [4], the system named is stripped skin wound infected with Pseudomonas aeruginosa (ATCC 27853). Put plainly: Histology of stripped, infected and treated mouse skin wound (Example 6). Particulars: 48 hours; for tissue repair as evidenced by histology: two different doses.
Series [5] has as its system P. aeruginosa (ACTA 9027). The series can be described thus: Mouse tape-stripped skin wound infection model (Example 2). Particulars: day five; for bacterial burden: topical aqueous 50, 100, 200 mM at two hours and daily for four days, none statistically significant; for most effective dose concentration: topical aqueous. Format: in vivo.
Series [6] has as its system Staphylococcus aureus ATCC 33591 (MRSA). Put plainly: Kirby-Bauer disc diffusion antimicrobial susceptibility testing. Type of series: cell-based.
The subject of a further series is MRSA. The settings on record: cited from earlier work.
The conditions of series [7]: rat, in vivo; cited from earlier work.
Another series deals with Pseudomonas. The settings on record: cited from earlier work.
For series [8] the following is noted: female, rat, in vivo.
The test system of the next series is Candida albicans. The series can be described thus: Kirby-Bauer disc diffusion antimicrobial susceptibility testing. Type of series: cell-based. The text has this: This example describes the method for testing the antimicrobial susceptibility of anthocyanins, anthocyanidins, or metabolites and compounds thereof. The Kirby-Bauer method of disc diffusion was used for testing, following a standard set of procedures recommended by the NCCLS. In this methodology, a set of discs saturated with either testing compounds or a control was placed on inoculated agar plates. The plates were inoculated with organisms including C. difficile, P. acnes, C. prefringens, L. casei, C. albicans, E. coli, ATTC 8739 and ATCC 43895, S. aureus, S. mutans, S. pyogenes, P. aeruginosa and K. pneumonia. The control sample was amoxicillin, an antimicrobial with very effective broad-spectrum antibiotic properties. Samples included delphinidin, pelargonidin, cyanidin CI, 28% cyanindin-3-glucoside (C3G), protocatechuic acid (PCA) and 2,4,6 Trihydroxybenzaldehyde (2,4,6 THBA).
After 18, 24, or 48 hours of incubation, depending upon the microorganism, each plate was examined. The diameters of the zones of complete inhibition were measured, including the diameter of the disc. Zones were measured to the nearest millimeter, using sliding calipers. The size of the zones of inhibition was interpreted by referring to NCCLS standard. […]

The conditions of series [9]: after ingestion; cited from earlier work.
For series [10] the following is noted: human skin; cited from earlier work.
In the next series the test system is IGF-1, TGE-β, EGF. Put plainly: Growth factor levels by ELISA in stripped, infected mouse skin (Example 5). Type of series: in vivo, mice. On the procedure: Four different conditions were used: mice had back skin tape stripped and the stripped site (wound) was infected with P. aeruginosa; mice had back skin stripped and were not infected, mice had taped stripped, infected and treated with PCA, mice were tape stripped, uninfected, and treated with PCA. When used, the PCA test reagent was applied topically in an aqueous solution on the stripped site at two hours and 24 hours.
The testing reagents consisted of and PCA formulated at one dose, 25 mM, in an aqueous solution. Levels of IGF-1, TGE-β, and EGF levels in the skin tissue at 48 hours were measured by ELISA. There were two control groups: the stripped skin and the stripped skin and infected.
(ELISA stands for enzyme-linked immunosorbent assay.)

Setting [11] is: all tested doses (PCA 25, 50 mM; C3G 100, 200 mM).

“Also recorded” adds a separate entry of the source.

On to `CC1(C)S[C@@H]2[C@H](NC(=O)[C@H](N)c3ccc(O)cc3)C(=O)N2[C@H]1C(=O)O` [Amoxicillin, amoxicillin, reference compound], for which the “activity against Pseudomonas aeruginosa” value in the series on Pseudomonas aeruginosa [1] is on record as “no effect”.
Turning to `OC[C@H]1O[C@@H](Oc2cc3c(O)cc(O)cc3[o+]c2-c2ccc(O)c(O)c2)[C@H](O)[C@@H](O)[C@@H]1O` [C3G, Cyanidin 3-glucoside], in the series on Pseudomonas aeruginosa [2], the “bactericidal effect on stripped skin wound” value was “bactericidal” and the “kill of Pseudomonas aeruginosa” value was 10,000 fold. Moreover, the bacterial burden entry in series [3] (100 mM topical) is listed as “significantly reduced the bacterial burden”. Further, in series [3] (200 mM topical), the bacterial burden entry is on record as “significantly reduced the bacterial burden”. The bacterial burden result in series [3] (setting [11]) is on record as “decreased the bacterial burden”. Moreover, the “activity against P. acnes” value in the series with P. acnes was “bactericidal”. The “all three local growth hormones (IGF-1, TGF-β, EGF)” value in the series with IGF-1, TGF-β, EGF is “decrease of all three local growth hormones”. In addition, in series [4] (C3G 100 mM), the dermal layer thickness entry is on record as “thicker”; the “hair follicles, cellular lining” value was “single and double cellular lining”; the inflammation entry is “inflammation in the dermis and muscular layer and below”; the surface cellularity result is recorded as “multiple cellular covering of the surface”. For the same molecule, the vascularity result in series [4] (C3G 100 mM) is “prominent”. In series [4] (C3G 200 mM), the dermal layer thickness entry is given as “thickened”; the “hair follicles, cellular lining” value was “single and double cellular lining”; the inflammation result is “inflammation in the dermis and muscular layer”; the surface cellularity result is reported as “multiple cells thick”. Further, the vascularity result in series [4] (C3G 200 mM) was “increased”. For the same molecule, the “tissue repair as evidenced by histology” value in [4] is “stimulated tissue repair”. For the same molecule, in series [5], the bacterial burden result is “decreased the bacterial burden” and the “most effective dose concentration” value worked out at 100 mM.
Turning to `O=C(O)c1ccc(O)c(O)c1` [PCA, 3,4 dihydroxybenzoic acid], the “activity against Staphylococcus aureus ATCC 33591 (MRSA)” value in series [6] is “effective”. The “biofilm destruction, MRSA” value with MRSA is “biofilm destroyer”. Besides, in series [7], the toxicity entry is reported as “greater than 5000 mg/kg body weight”. For the same molecule, in the series on Pseudomonas aeruginosa [1], the “activity against Pseudomonas aeruginosa” value is listed as “some effectiveness”. For the same molecule, in the series on Pseudomonas aeruginosa [2], the “bactericidal effect on stripped skin wound” value is “bactericidal” and the “kill of Pseudomonas aeruginosa” value is given as 10,000 fold. Besides, in series [3] (25 mM topical), the “statistical significance of bacterial burden reduction” value is reported as “statistically significant at 48 hours” and the bacterial burden entry was “reduced the bacterial burden at both time periods”. In addition, the bacterial burden result in series [3] (setting [11]) is listed as “decreased the bacterial burden”. Moreover, the “activity against P. acnes” value in the series with P. acnes is “bactericidal”. Besides, the “biofilm destruction, Pseudomonas” value in the series on Pseudomonas was “biofilm destroyer”. Further, the “human relative dose to exceed safety” value in series [8] is on record as 350,000 milligrams per day. The “susceptibility of Candida albicans” value in the series on Candida albicans was “susceptible”. Besides, in [4] (PCA 25 mM), the “collagen between epidermis and dermis” value was “collagen proliferation between the epidermis and dermis; also recorded: collagen layer formation between the epidermis and dermis”; the dermal layer thickness entry is “thickened”; the “hair follicles, cellular lining” value is recorded as “prominent with multiple cellular lining”; the inflammation entry is listed as “abundant inflammation”. In series [4] (PCA 25 mM), the surface cellularity entry was “abundant and multiple cell layers”; the vascularity entry is listed as “moderate vascularity, but less than that seen in infected untreated group”. In addition, in series [4] (PCA 50 mM), the dermal layer thickness entry is listed as “thicker”; the “hair follicles, cellular lining” value is “double layer of cells”; the inflammation result was “increased in the dermis and below the muscle layer”; the surface cellularity result is recorded as “covered with multiple layers of cells”. Also, in series [4] (PCA 50 mM), the vascularity entry is “increased vascularity”. In addition, the “tissue repair as evidenced by histology” value in [4] was “stimulated tissue repair”. In [9], the “duration of metabolism prior to excretion in the urine and feces” value is reported as “eight”. In addition, the skin irritation entry in series [10] was “no skin irritation”. For the same molecule, in series [5], the bacterial burden result was “decreased the bacterial burden” and the “most effective dose concentration” value is 50 mM. Besides, the IGF-1 production result with IGF-1, TGE-β, EGF (25 mM topical at 2 and 24 hours, stripped and infected skin, 48 hours) is listed as “optimizes the IGF-1 production”. In addition, in the series on IGF-1, TGE-β, EGF (25 mM topical, stripped and infected skin), the local growth hormones result is “optimizes the local growth hormones”. In the series on IGF-1, TGE-β, EGF (25 mM topical, stripped, infected and treated wound vs other groups, 48 hours), the EGF response level result was “lowest”.

The values are drawn from patent US20220125987A1, “WOUND CLOSURE DEVICES COMPRISING PROTOCATECHUIC ACID” (priority 2020, published 2022).
